Reference: PubChem BioAssay AID330 (DTP/NCI, 2004)
Several values for one entry are separate records, joined by “and”; a condition that tells them apart may be missing. Equal values may be shown once. Toxic doses and inconclusive results are not listed.

System: P388 leukemia ip, CD2F1 mice, survival T/C
Test: NCI In Vivo Anticancer Drug Screen. Data for tumor model P388 Leukemia (intraperitoneal) in CD2F1 (CDF1) mice
Settings: endpoint: median survival time, higher = longer survival
Procedure, shortened: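 Mice carrying the transplanted tumor received test compound or vehicle. Survival was recorded in each group, and the value is the treated-group measurement divided by that of the vehicle-treated control group.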

[1] = dose: 50.0 mg/kg/injection, schedule: Q01DX009 (ip), vehicle: saline
[2] = dose: 100.0 mg/kg/injection, schedule: Q01DX009 (ip), vehicle: saline
[3] = dose: 100.0 mg/kg/injection, schedule: Q04DX003 (ip), vehicle: saline
[4] = dose: 200.0 mg/kg/injection, schedule: Q01DX009 (ip), vehicle: saline
[5] = dose: 200.0 mg/kg/injection, schedule: Q04DX003 (ip), vehicle: saline
[6] = dose: 400.0 mg/kg/injection, schedule: Q04DX003 (ip), vehicle: saline

Q: How did the T/C (dose: 3.75 mg/kg/injection, schedule: Q01DX005 (ip), vehicle: Klucel (hydroxypropylcellulose) (HPC)) turn out when `C[CH2][Sn]([CH2]C)[S]CC(N)C(=O)O` (stereo unspecified) was run?
A: 110 % of control

Q: And the T/C (dose: 7.5 mg/kg/injection, schedule: Q01DX005 (ip), vehicle: Klucel (hydroxypropylcellulose) (HPC))?
A: 120 % of control

Q: What does the source list for `CCCCCCCCCCCCCCCCCCOP(=O)([O-])OCC[N+](C)(C)C`?
A: T/C (dose: 12.5 mg/kg/injection, schedule: Q01DX009 (ip), vehicle: saline): 98 % of control; T/C (dose: 25.0 mg/kg/injection, schedule: Q01DX009 (ip), vehicle: saline): 107 % of control

Q: For `Cc1cc(OC(N)=S)cc(C)c1Cl`, which T/C (dose: 50.0 mg/kg/injection, schedule: Q01DX009 (ip), vehicle: Klucel (hydroxypropylcellulose) (HPC)) is on record?
A: 101 % of control

Q: What about the T/C (dose: 100.0 mg/kg/injection, schedule: Q01DX009 (ip), vehicle: Klucel (hydroxypropylcellulose) (HPC)) of the same compound?
A: 100 % of control

Q: What about the T/C (dose: 200.0 mg/kg/injection, schedule: Q01DX009 (ip), vehicle: Klucel (hydroxypropylcellulose) (HPC)) of the same compound?
A: 101 % of control

Q: What does the source list for `NC(Cc1cccc(NP(=S)(N2CC2)N2CC2)c1)C(=O)O` (stereo unspecified)?
A: T/C (dose: 12.5 mg/kg/injection, schedule: Q04DX003 (ip), vehicle: saline): 109 % of control; T/C (dose: 25.0 mg/kg/injection, schedule: Q04DX003 (ip), vehicle: saline): 118 % of control; T/C [1]: 159 % of control; T/C (dose: 50.0 mg/kg/injection, schedule: Q04DX003 (ip), vehicle: saline with Tween-80): 103 % of control; T/C (dose: 75.0 mg/kg/injection, schedule: Q04DX003 (ip), vehicle: saline with Tween-80): 92 % of control; T/C [2]: 181 % of control; T/C [3]: 183 % of control; T/C [4]: 209 % of control; T/C [5]: 225 % of control; T/C (dose: 264.0 mg/kg/injection, schedule: Q04DX003 (ip), vehicle: saline): 195 % of control; T/C [6]: 245 % of control and 250 % of control

Q: With `COc1ccc(C(=O)C(Br)CS(=O)(=O)c2ccc(C)cc2)cc1` (stereo unspecified) as the compound, how does the T/C (dose: 100.0 mg/kg/injection, schedule: Q04DX002 (ip), vehicle: saline) read?
A: 100 % of control

Q: And the T/C (dose: 200.0 mg/kg/injection, schedule: Q04DX002 (ip), vehicle: saline)?
A: 102 % of control

Q: What about the T/C (dose: 400.0 mg/kg/injection, schedule: Q04DX002 (ip), vehicle: saline) of the same compound?
A: 108 % of control

Q: What does the source list for `CCOC(=O)c1cn2ccccc2c1C(=O)OCC`?
A: T/C (dose: 60.0 mg/kg/injection, schedule: Q01DX005 (ip), vehicle: saline with Tween-80): 108 % of control; T/C (dose: 120.0 mg/kg/injection, schedule: Q01DX005 (ip), vehicle: saline with Tween-80): 99 % of control; T/C (dose: 240.0 mg/kg/injection, schedule: Q01DX005 (ip), vehicle: saline with Tween-80): 92 % of control

Q: How did the T/C (dose: 0.12 mg/kg/injection, schedule: Q01DX009 (ip), vehicle: saline) turn out when `CC(/C=C(\C)N1CCCC1)=[N+]1CCCC1` was run?
A: 111 % of control

Q: And the T/C (dose: 0.25 mg/kg/injection, schedule: Q01DX009 (ip), vehicle: saline)?
A: 111 % of control

Q: And the T/C (dose: 0.5 mg/kg/injection, schedule: Q01DX009 (ip), vehicle: saline)?
A: 108 % of control

Q: What about the T/C (dose: 1.0 mg/kg/injection, schedule: Q01DX009 (ip), vehicle: saline) of the same compound?
A: 109 % of control

Q: And the T/C (dose: 2.0 mg/kg/injection, schedule: Q01DX009 (ip), vehicle: saline)?
A: 109 % of control

Q: How did the T/C [3] turn out when `Cn1c(=O)c2c(nc(Cl)n2Cc2ccc([N+](=O)[O-])cc2)n(C)c1=O` was run?
A: 95 % of control

Q: What about the T/C [5] of the same compound?
A: 92 % of control

Q: And the T/C [6]?
A: 90 % of control

Q: `CN1C=c2c3c(ccc2=C2C=CC4C=C5OCOC5=CC4=C21)OCO3` (stereo unspecified) was tested. Which T/C (dose: 4.0 mg/kg/injection, schedule: Q01DX009 (ip), vehicle: saline with Tween-80) did it give?
A: 113 % of control

Q: What about the T/C (dose: 8.0 mg/kg/injection, schedule: Q01DX009 (ip), vehicle: saline with Tween-80) of the same compound?
A: 107 % of control

Q: What about the T/C (dose: 16.0 mg/kg/injection, schedule: Q01DX009 (ip), vehicle: saline with Tween-80) of the same compound?
A: 110 % of control

Q: Which results are given for `C=CC1(C)N=C1N(C)C` (stereo unspecified)?
A: T/C [1]: 105 % of control; T/C [2]: 97 % of control; T/C [4]: 96 % of control

Q: Which T/C (dose: 100.0 mg/kg/injection, schedule: Q04DX002 (ip), vehicle: Klucel + Tween-80) does the source give for `O=C(Cc1nc2ccccc2n2nnnc12)NCCO` here?
A: 99 % of control

Q: And the T/C (dose: 200.0 mg/kg/injection, schedule: Q04DX002 (ip), vehicle: Klucel + Tween-80)?
A: 88 % of control

Q: What about the T/C (dose: 400.0 mg/kg/injection, schedule: Q04DX002 (ip), vehicle: Klucel + Tween-80) of the same compound?
A: 92 % of control
